Results published in patent US20260272964A1, “PENTAGALLOYL GLUCOSE DERIVED FROM SCHINUS PLANTS AND METHODS OF USE” (Emory University, priority 2020, published 2026).
In brackets after ≈: the same amount, converted by molar mass. Like-named read-outs stand apart in the source and are kept apart here.

Tested on: A. baumannii AB5075
Assay: Resistance studies (agar plates and 21-day serial passaging)
Format: cell-based, Acinetobacter baumannii
Conditions: for MIC: Acinetobacter baumannii
Experimental: To test for spontaneous development of resistance to PGG, A. baumannii AB5075 was inoculated on agar plates containing PGG at 0.5×MIC, 1×MIC, and 2×MIC (128, 256, and 512 μg/mL, respectively), and a control plate containing no PGG. […] Next, evolution of resistance was tested by serial passaging A. baumannii AB5075 for 21 days in the presence of a PGG gradient, using culture from the 0.5×MIC treatment for each subsequent passage. Serial passaging with a tetracycline gradient served as a control.

## CN(C)[C@@H]1C(O)=C(C(N)=O)C(=O)[C@@]2(O)C(O)=C3C(=O)c4c(O)cccc4[C@@](C)(O)[C@H]3C[C@@H]12 [tetracycline, reference compound]
A. baumannii, after 10 passages
  fold increase in MIC: 16 fold
AB5075, read-out: Base MIC
  MIC: 4 µg/mL (≈ 9 µM)
AB5075, read-out: MIC after serial passaging
  MIC: 64 µg/mL (≈ 144 µM)
